Assay results as given in ChEMBL document CHEMBL3045975, “In vitro anti-inflammatory potential and QSAR analysis of oxazolo/thiazolo pyrimidine derivatives” (Med Chem Res, 2013).

experiment: In vitro anti-inflammatory activity assessed as inhibition of heat-induced albumin denaturtion incubated for 15 min followed by heating measured after 10 min; assay type: functional

Compound | IC50
CC1=C(C(=O)Nc2ccccc2)C(c2ccc(Cl)cc2)n2c(s/c(=C\c3ccc([N+](=O)[O-])cc3)c2=O)=N1 (configuration not stated) | 190.42 ppm
CC1=C(C(=O)Nc2ccccc2)C(c2ccccc2)n2c(o/c(=C\c3ccc([N+](=O)[O-])cc3)c2=O)=N1 (configuration not stated) | 283.525 ppm
COc1ccc(/C=c2\sc3n(c2=O)C(c2ccccc2)C(C(=O)Nc2ccccc2)=C(C)N=3)cc1 (configuration not stated) | 291.257 ppm
CC1=C(C(=O)Nc2ccccc2)C(c2ccccc2)n2c(o/c(=C\c3ccc(Cl)cc3)c2=O)=N1 (configuration not stated) | 261.464 ppm
CC1=C(C(=O)Nc2ccccc2)C(c2ccc(Cl)cc2)n2c(s/c(=C\c3ccc(N(C)C)cc3)c2=O)=N1 (configuration not stated) | 309.862 ppm
O=C([O-])Cc1ccccc1Nc1c(Cl)cccc1Cl.[Na+] [DICLOFENAC SODIUM] | 188.24 ppm
COc1ccc(/C=c2\sc3n(c2=O)C(c2ccc(Cl)cc2)C(C(=O)Nc2ccccc2)=C(C)N=3)cc1 (configuration not stated) | 232.597 ppm
CC1=C(C(=O)Nc2ccccc2)C(c2ccc([N+](=O)[O-])cc2)n2c(s/c(=C\c3ccc(Cl)cc3)c2=O)=N1 (configuration not stated) | 194.611 ppm
CC1=C(C(=O)Nc2ccccc2)C(c2ccc([N+](=O)[O-])cc2)n2c(s/c(=C\c3ccc(N(C)C)cc3)c2=O)=N1 (configuration not stated) | 336.75 ppm
CC1=C(C(=O)Nc2ccccc2)C(c2ccc([N+](=O)[O-])cc2)n2c(o/c(=C\c3ccc(N(C)C)cc3)c2=O)=N1 (configuration not stated) | 339.35 ppm
CC1=C(C(=O)Nc2ccccc2)C(c2ccccc2)n2c(o/c(=C\c3ccc(N(C)C)cc3)c2=O)=N1 (configuration not stated) | 330.312 ppm
COc1ccc(C2C(C(=O)Nc3ccccc3)=C(C)N=c3s/c(=C\c4ccc(N(C)C)cc4)c(=O)n32)cc1 (configuration not stated) | 301.677 ppm
COc1ccc(/C=c2\sc3n(c2=O)C(c2ccc([N+](=O)[O-])cc2)C(C(=O)Nc2ccccc2)=C(C)N=3)cc1 (configuration not stated) | 250.38 ppm
COc1ccc(C2C(C(=O)Nc3ccccc3)=C(C)N=c3s/c(=C\c4ccc([N+](=O)[O-])cc4)c(=O)n32)cc1 (configuration not stated) | 254.99 ppm
COc1ccc(C2C(C(=O)Nc3ccccc3)=C(C)N=c3s/c(=C\c4ccc(Cl)cc4)c(=O)n32)cc1 (configuration not stated) | 210.874 ppm
CC1=C(C(=O)Nc2ccccc2)C(c2ccccc2)n2c(s/c(=C\c3ccc(N(C)C)cc3)c2=O)=N1 (configuration not stated) | 316.686 ppm
CC1=C(C(=O)Nc2ccccc2)C(c2ccccc2)n2c(s/c(=C\c3ccc([N+](=O)[O-])cc3)c2=O)=N1 (configuration not stated) | 253.376 ppm
CC1=C(C(=O)Nc2ccccc2)C(c2ccccc2)n2c(s/c(=C\c3ccc(Cl)cc3)c2=O)=N1 (configuration not stated) | 226.318 ppm

Now from value to compound:

IC50 | Compound
314.544 ppm | COc1ccc(C2C(C(=O)Nc3ccccc3)=C(C)N=c3o/c(=C\c4ccc(N(C)C)cc4)c(=O)n32)cc1 (configuration not stated)
196.05 ppm | CC1=C(C(=O)Nc2ccccc2)C(c2ccc([N+](=O)[O-])cc2)n2c(o/c(=C\c3ccc(Cl)cc3)c2=O)=N1 (configuration not stated)
304.179 ppm | COc1ccc(/C=c2\oc3n(c2=O)C(c2ccccc2)C(C(=O)Nc2ccccc2)=C(C)N=3)cc1 (configuration not stated)
259.104 ppm | COc1ccc(/C=c2\oc3n(c2=O)C(c2ccc([N+](=O)[O-])cc2)C(C(=O)Nc2ccccc2)=C(C)N=3)cc1 (configuration not stated)
236.954 ppm | COc1ccc(C2C(C(=O)Nc3ccccc3)=C(C)N=c3o/c(=C\c4ccc(Cl)cc4)c(=O)n32)cc1 (configuration not stated)
242.144 ppm | COc1ccc(/C=c2\oc3n(c2=O)C(c2ccc(Cl)cc2)C(C(=O)Nc2ccccc2)=C(C)N=3)cc1 (configuration not stated)
319.524 ppm | CC1=C(C(=O)Nc2ccccc2)C(c2ccc(Cl)cc2)n2c(o/c(=C\c3ccc(N(C)C)cc3)c2=O)=N1 (configuration not stated)
192.486 ppm | CC1=C(C(=O)Nc2ccccc2)C(c2ccc(Cl)cc2)n2c(o/c(=C\c3ccc([N+](=O)[O-])cc3)c2=O)=N1 (configuration not stated)
272.584 ppm | COc1ccc(C2C(C(=O)Nc3ccccc3)=C(C)N=c3o/c(=C\c4ccc([N+](=O)[O-])cc4)c(=O)n32)cc1 (configuration not stated)
